For assay [1], the target named is T1, G12D-mutant human KRAS (amino acid residues 1-188) (Homo sapiens, UniProt P01116, G12D).
T1 construct: G12D or G12C-mutant human KRAS (amino acid residues 1-188) with FLAG tag; made in house; host or cells: E. coli
The experiment in a line: KRAS Binding Disruption Assay (AlphaScreen; biotinylated KRpep-2d analogue or RAF1-RBD), G12D. The following applies: KRAS G12D; geometric mean; read-out: KRAS GMean IC50 (uM) MUTATION: G12D. In a few lines: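 AlphaScreen readout: signal falls as compound displaces biotinylated KRpep-2d analogue or RAF1-RBD from mutant KRAS. Both partners at 5-20 nM, 1 h binding at 25° C, then 10 μg/mL Anti-Flag acceptor and streptavidin donor beads for 1 h. IC50 by nonlinear regression of % inhibition.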

For assay [2], the target named is T2, G12V-mutant human KRAS (amino acid residues 1-188) (Homo sapiens, UniProt P01116, G12V).
T2 construct: G12V-mutant human KRAS (amino acid residues 1-188) with FLAG tag was purified from E. coli; made in house; host or cells: E. coli
The assay can be described thus: KRAS Binding Competition Assay (AlphaScreen; biotinylated KRpep-2d analogue), G12V. The following applies: geometric mean, read-out: KRAS GMean IC50 (uM) MUTATION: G12V. On the technique in general: Bead proximity is the source of the signal in Alpha formats.

Structures are written as SMILES.

For `CN1CC[C@@H](NC(=O)N2CC3CCCC2CN3c2nc(OC[C@@H]3CCCN3C)nc3c(F)c(-c4cc(O)cc5ccccc45)ccc23)C1` (stereo partly drawn) [P-0297, 8-(8-fluoro-7-(3-hydroxynaphthalen-1-yl)-2-(((S)-1-methylpyrrolidin-2-yl)methoxy)quinazolin-4-yl)-N-((R)-1-methylpyrrolidin-3-yl)-6,8-diazabicyclo[3.2.2]nonane-6-carboxamide], the IC50 in assay [1] and in assay [2] was 0.0001 to 10 µM throughout.

Regarding `CN1CCC[C@H]1COc1nc(N2CC3CCCC2CN3C(=O)NC2CCOC2)c2ccc(-c3cc(O)cc4ccccc34)c(F)c2n1` (stereo partly drawn) [P-0298, 8-(8-fluoro-7-(3-hydroxynaphthalen-1-yl)-2-(((S)-1-methylpyrrolidin-2-yl)methoxy)quinazolin-4-yl)-N-(tetrahydrofuran-3-yl)-6,8-diazabicyclo[3.2.2]nonane-6-carboxamide], the IC50 in assay [1] and in assay [2] was 0.0001 to 10 µM each time.

In the case of `CN1CCC[C@H]1COc1nc(N2[C@@H]3CC[C@H]2CNC3)c2ccc(-c3c(N)cccc3Cl)cc2n1` [P-0300, 2-(4-((1R,5S)-3,8-diazabicyclo[3.2.1]octan-8-yl)-2-(((S)-1-methylpyrrolidin-2-yl)methoxy)quinazolin-7-yl)-3-chloroaniline], the IC50 in assay [1] and in assay [2] was 10 to 100 µM each time.

For the molecule `Oc1cc(-c2ccc3c(N4[C@@H]5CC[C@H]4CNC5)nc(Cc4ccncc4)nc3c2)c2ccccc2c1` [P-0301, 4-(4-((1R,5S)-3,8-diazabicyclo[3.2.1]octan-8-yl)-2-(pyridin-4-ylmethyl)quinazolin-7-yl)naphthalen-2-ol], the IC50 in assay [1] and in assay [2] was 0.0001 to 10 µM in each case.

For `CN1CCC[C@H]1COc1nc(N2C[C@H]3CC[C@@H](C2)N3)c2cc(F)c(-c3c(O)cccc3F)c(F)c2n1` [P-0302, 2-(4-((1R,5S)-3,8-diazabicyclo[3.2.1]octan-3-yl)-6,8-difluoro-2-(((S)-1-methylpyrrolidin-2-yl)methoxy)quinazolin-7-yl)-3-fluorophenol], the IC50 – broadly, the midpoint of a concentration-inhibition curve – lay in the range of 0.0001 to 10 µM in assay [1] and 10 to 100 µM in assay [2].

Consider `Cc1ccc2[nH]ncc2c1-c1c(F)cc2c(N3C[C@H]4CC[C@@H](C3)N4)nc(OC[C@@H]3CCCN3C)nc2c1F` [P-0303, 4-((1R,5S)-3,8-diazabicyclo[3.2.1]octan-3-yl)-6,8-difluoro-7-(5-methyl-1H-indazol-4-yl)-2-(((S)-1-methylpyrrolidin-2-yl)methoxy)quinazoline], for which the IC50 is 0.0001 to 10 µM in assay [1] and 10 to 100 µM in assay [2].

As for `CN1CCC[C@H]1COc1nc(N2[C@@H]3CC[C@H]2CNC3)c2ccc(-c3cc(CO)cc4ccccc34)cc2n1` [P-0304, (4-(4-((1R,5S)-3,8-diazabicyclo[3.2.1]octan-8-yl)-2-(((S)-1-methylpyrrolidin-2-yl)methoxy)quinazolin-7-yl)naphthalen-2-yl)methanol], the IC50 in assay [1] and in assay [2] was 10 to 100 µM each time.

For `CN1CCC[C@H]1COc1nc(N2C[C@H]3CC[C@@H](C2)N3)c2cc(F)c(N3CCNc4ccccc43)c(F)c2n1` [P-0305, 4-((1R,5S)-3,8-diazabicyclo[3.2.1]octan-3-yl)-7-(3,4-dihydroquinoxalin-1(2H)-yl)-6,8-difluoro-2-(((S)-1-methylpyrrolidin-2-yl)methoxy)quinazoline], the IC50 is 0.0001 to 10 µM in assay [1] and 10 to 100 µM in assay [2].

As to `CN1CCC[C@H]1COc1nc(N2C[C@H]3CC[C@@H](C2)N3)c2ccc(N3CCNc4ccccc43)c(F)c2n1` [P-0306, 4-((1R,5S)-3,8-diazabicyclo[3.2.1]octan-3-yl)-7-(3,4-dihydroquinoxalin-1(2H)-yl)-8-fluoro-2-(((S)-1-methylpyrrolidin-2-yl)methoxy)quinazoline], the IC50 in assay [1] was 0.0001 to 10 µM; in assay [2], 10 to 100 µM.

For the molecule `CN1CCC[C@H]1COc1nc(N2C[C@H]3CC[C@@H](C2)N3)c2ccc(N3CC(O)Cc4ccccc43)c(F)c2n1` (stereo partly drawn) [P-0307, 1-(4-((1R,5S)-3,8-diazabicyclo[3.2.1]octan-3-yl)-8-fluoro-2-(((S)-1-methylpyrrolidin-2-yl)methoxy)quinazolin-7-yl)-1,2,3,4-tetrahydroquinolin-3-ol], the IC50 was 0.0001 to 10 µM in assay [1] and 10 to 100 µM in assay [2].

As for `CN1CCC[C@H]1COc1nc(N2C[C@H]3CC[C@@H](C2)N3)c2cc(F)c(-c3c[nH]c4ccccc34)c(F)c2n1` [P-0308, 4-((1R,5S)-3,8-diazabicyclo[3.2.1]octan-3-yl)-6,8-difluoro-7-(1H-indol-3-yl)-2-(((S)-1-methylpyrrolidin-2-yl)methoxy)quinazoline], the IC50 in assay [1] was in the range of 0.0001 to 10 µM; in assay [2] it was 10 to 100 µM.

On to `CN1CCC[C@H]1COc1nc(N2C[C@H]3CC[C@@H](C2)N3)c2cc(F)c(-c3c[nH]c4cccc(Cl)c34)c(F)c2n1` [P-0309, 4-((1R,5S)-3,8-diazabicyclo[3.2.1]octan-3-yl)-7-(4-chloro-1H-indol-3-yl)-6,8-difluoro-2-(((S)-1-methylpyrrolidin-2-yl)methoxy)quinazoline], for which the IC50 in assay [1] and in assay [2] was 10 to 100 µM in each case.

Consider `CN1CCC[C@H]1COc1nc(N2C[C@H]3CC[C@@H](C2)N3)c2cc(F)c(-c3c[nH]c4ccc(Cl)cc34)c(F)c2n1` [P-0310, 4-((1R,5S)-3,8-diazabicyclo[3.2.1]octan-3-yl)-7-(5-chloro-1H-indol-3-yl)-6,8-difluoro-2-(((S)-1-methylpyrrolidin-2-yl)methoxy)quinazoline], for which the IC50 in assay [1] was 0.0001 to 10 µM; in assay [2], 10 to 100 µM.

In the case of `CN1CCC[C@H]1COc1nc(N2[C@@H]3CC[C@H]2CN(C(=O)CC(C)(C)O)C3)c2ccc(-c3cc(O)cc4ccccc34)cc2n1` [P-0311, 3-hydroxy-1-((1R,5S)-8-(7-(3-hydroxynaphthalen-1-yl)-2-(((S)-1-methylpyrrolidin-2-yl)methoxy)quinazolin-4-yl)-3,8-diazabicyclo[3.2.1]octan-3-yl)-3-methylbutan-1-one], the IC50 in assay [1] and in assay [2] was 10 to 100 µM throughout.

For the molecule `CN1CCC[C@H]1COc1nc(N2[C@@H]3CC[C@H]2CN(C(=O)Cc2n[nH]c4ccccc24)C3)c2ccc(-c3cc(O)cc4ccccc34)cc2n1` [P-0312, 1-((1R,5S)-8-(7-(3-hydroxynaphthalen-1-yl)-2-(((S)-1-methylpyrrolidin-2-yl)methoxy)quinazolin-4-yl)-3,8-diazabicyclo[3.2.1]octan-3-yl)-2-(1H-indazol-3-yl)ethan-1-one], the IC50 in assay [1] and in assay [2] was 10 to 100 µM each time.

`CN1CCC[C@H]1COc1nc(N2C[C@H]3CC[C@@H](C2)N3)c2ccc(-c3c[nH]c4ccc(C#N)cc34)c(F)c2n1` [P-0313, 3-(4-((1R,5S)-3,8-diazabicyclo[3.2.1]octan-3-yl)-8-fluoro-2-(((S)-1-methylpyrrolidin-2-yl)methoxy)quinazolin-7-yl)-1H-indole-5-carbonitrile]: the IC50 in assay [1] fell in the range of 10 to 100 µM; in assay [2] it was 100 to 1000 µM.

With `COc1ccc2[nH]cc(-c3ccc4c(N5C[C@H]6CC[C@@H](C5)N6)nc(OC[C@@H]5CCCN5C)nc4c3F)c2c1` [P-0314, 4-((1R,5S)-3,8-diazabicyclo[3.2.1]octan-3-yl)-8-fluoro-7-(5-methoxy-1H-indol-3-yl)-2-(((S)-1-methylpyrrolidin-2-yl)methoxy)quinazoline], the IC50 was in the range of 10 to 100 µM in assay [1] and 100 to 1000 µM in assay [2].

For the origin of these results see patent publication US20230081426A1, “COMPOUNDS AND METHODS FOR KRAS MODULATION AND INDICATIONS THEREFOR” (Plexxikon Inc., priority 2020, published 2023).
